Source: patent US9408816B2, “Method of using histone deacetylase inhibitors and monitoring biomarkers in combination therapy” (Pharmacyclics LLC, priority 2006, dated 2016)

What was measured:
[1] = test system: RAD51 protein in NHL cell lines; assay: RAD51 protein downregulation in Non-Hodgkins lymphoma cell lines (Western blot); assay type: cell-based; conditions: 24 hours, most of the cell lines tested
Description: (§1) Western Blot Analysis: Cell lines [al NHL except for Jurkat (T-cll leukemia) and K562 (CML)] were treated with PCI-24781 for the designated times, lysed and total protein was quantitated and western blot analysis performed. RAD51 and Actin antibodies were from Santa Cruz.

[2] = test system: RAD51 mRNA in lymphoma cell lines; assay: RAD51 mRNA by Taqman RT-PCR in lymphoma cell lines; assay type: cell-based
Description: (§2) Tagman Gene Expression Assays: 10 lymphoma cell lines were treated with PCI-24781 for various times and total RNA was isolated and quantitated. Taqman assays were set up using the Taqman master mix (Applied Biosystems) and 50 ng of total RNA as template. Gene expression assay probe sets for RAD51 was purchased from Applied Biosystems.
(§3) Cell lines were treated with 3-((dimethylamino)methyl)-N-(2-(4-(hydroxycarbamoyl)phenoxy)ethyl)benzofuran-2-carboxamide for 24 hours, and RAD51 mRNA was analyzed by Taqman RT-PCR.

lymphoma cell lines = assay: Apoptosis by Annexin V-FITC flow cytometry in lymphoma cell lines; assay type: cell-based
Description: (§4) 3-((dimethylamino)methyl)-N-(2-(4-(hydroxycarbamoyl)phenoxy)ethyl)benzofuran-2-carboxamide induced apoptosis in lymphoma cell lines after a 48 hour incubation measured by Annexin V-FITC flow cytometry. […] Thus, both the initial level of RAD51 in tumors as well as the fold decrease after treatment are predictive for 3-((dimethylamino)methyl)-N-(2-(4-(hydroxycarbamoyl)phenoxy)ethyl)benzofuran-2-carboxamide activity, and in some embodiments is used as biomarkers in clinical studies to identify patients most likely to respond to 3-((dimethylamino)methyl)-N-(2-(4-(hydroxycarbamoyl)phenoxy)ethyl)benzofuran-2-carboxamide.

RAD51 in HCT116 cells = assay: RAD51 protein levels by Western blotting in HCT116 cells; assay type: cell-based; conditions: by 24 hours, HCT-116 in vitro
Description: (§5) To explore this further, we analyzed levels of RAD51, an essential protein in HR, by Western blotting and immunofluorescence. Following exposure of HCT116 cells to doses of the test compound ranging from 0.2 μM to 2.0 μM, RAD51 levels decreased to 20% of control by 24 hr, but remained unchanged at 6 hr. […] Finally, RAD51 nuclear foci were visualized following γ-irradiation.
For determination of protein levels by Western blot, cellular extracts are prepared as follows. Cells are harvested by scraping; washed with PBS and pelleted by centrifugation. Cell pellets (from 100 mm plate) are resuspended with 200 μl B3 buffer containing protease inhibitors shaken at 4° C. for 10 min and centrifuge at 12,000 rpm at 4° C. in Tomy microcentrifuge for 10 minutes. To make 1 liter of B3 buffer, add 1 ml of NP-40, 50 ml of 5 M NaCl, 10 ml of […], 50 ml of 1 M Tris HCl at pH7.5 to 889 ml dH2O. The day of cell harvest protease inhibitors are added to B3 buffer (aprotinin, leupeptin and pepstatin to a final concentration of 2 μg/ml, 5 μg/ml and 0.7 μg/ml, respectively). […] Sample protein concentrations are determined by the Bradford Assay (BioRad; Richmond, Calif.). […]
Western Blot Analysis: Cell lines [al NHL except for Jurkat (T-cll leukemia) and K562 (CML)] were treated with PCI-24781 for the designated times, lysed and total protein was quantitated and western blot analysis performed. […]

[3] = test system: RAD51 transcript in HCT116 cells; assay: RAD51 transcript levels by real time PCR in HCT116 cells; assay type: cell-based; conditions: by 24 hours, HCT-116 in vitro
[4] = test system: RAD51 mRNA in HH cell line; assay: RAD51 mRNA by Taqman RT-PCR in HH cell line; assay type: cell-based; conditions: 24 hours
Description: as §2, §3

[5] = test system: DHL-4 Non-Hodgkins cell line; assay: Combination with doxorubicin in DHL-4; assay type: cell-based; conditions: administered simultaneously
[6] = test system: RAD51 foci in irradiated HCT-116 cells; assay: RAD51 nuclear foci following γ-irradiation; assay type: cell-based; conditions: pretreatment for 24 hours
Description: as §5
Monolayer cultures of different cells are grown in Dulbecco's MEM medium supplemented with 10% fetal bovine serum and antibiotics. The cells are detached from culture flasks by gentle trypsinization, pelleted and resuspended in phosphate buffered saline (PBS; 136 mM NaCl, 2 mM KCG, 10.6 mM NaHPO4, 1.5 mM KH2PO4 [pH 7.3]) prewarmed at 37° C. (Haaf, et al., 1995, Proc. Natl. Acad. Sci. USA 92: 2298-2302). Cultured cells are washed and resuspended in PBS. The density of somatic cells is adjusted to about 10^5 cells per ml in PBS. Aliquots (0.5 ml) of the cell suspension are centrifuged onto clean glass slides at 800 rpm for 4 min, in a Cytospin (Shandon, Pittsburg). Immediately after cytocentrifugation, the slides are fixed in −20° C. methanol for 30 min and then immersed in ice-cold acetone for a few seconds to permealize the cells for antibody staining. […]

[7] = test system: RAD51 in HCT-116 mouse xenografts; assay: RAD51 levels in HCT-116 xenograft tumors; conditions: HCT-116, in vivo (not shown)
Description: Also shown are RAD51 levels and actin levels after extraction of tumor from HCT-116 mouse xenografts with different dosing regimens. 1× animals received a single oral dose 4 hours before the end of the study; 2× animals received one oral dose 28 hours before the end of the study and received a second dose 6 hours later; 3× animals were dosed as in the 2× but also received a third dose the following morning, 24 hours after the first dose was administered and 4 hours before the end of the study. Fold changes in protein levels were quantitated by using Odyssey software and were normalized to the levels of the actin loading control.
3-((dimethylamino)methyl)-N-(2-(4-(hydroxycarbamoyl)phenoxy)ethyl)benzofuran-2-carboxamide pretreatment for 24 hours also lead to complete loss of RAD51 foci in the nuclei of irradiated HCT-116 cells (not shown; see Adimoolam et al. 2007, PNAS epub Nov. 27 the experiment, which is herein incorporated by reference).

[8] = test system: DLCL2 Non-Hodgkins cell line; assay: Combination with doxorubicin in DLCL2; assay type: cell-based; conditions: administered simultaneously
HH lymphoma line = assay: Apoptosis by Annexin V-FITC flow cytometry in HH line; assay type: cell-based
Description: as §4

HH cell line = assay: Combination with doxorubicin in HH; assay type: cell-based; conditions: administered simultaneously
[9] = test system: RAD51 protein in HH cutaneous T-cell lymphoma cell line; assay: RAD51 protein downregulation in HH cell line (Western blot); assay type: cell-based; conditions: 24 hours
Description: as §1

CN(C)Cc1c(C(=O)NCCOc2ccc(C(=O)NO)cc2)oc2ccccc12 [3-((dimethylamino)methyl)-N-(2-(4-(hydroxycarbamoyl)phenoxy)ethyl)benzofuran-2-carboxamide]
RAD51 protein levels [1]: downregulated RAD51 protein levels in a dose-dependent manner | RAD51 protein levels ([1]; listed as 3-((dimethylamino)methyl) -N-(2-(4-(hydroxycarbamoyl)phenoxy)ethyl)benzofuran-2-): downregulated RAD51 protein levels | downregulation of RAD51 mRNA expression ([2]; 24 hours, most of the cell lines): more than 2 fold | decrease in RAD51 mRNA ([2]; the five cell lines with >70% apoptosis): > 4 fold | apoptotic cell death (lymphoma cell lines; 48 hour incubation, all the lines except HH): dose-dependent increase in apoptotic cell death | apoptosis (lymphoma cell lines; at 24 hrs, all the lines): lower levels of apoptosis | apoptosis following drug treatment (lymphoma cell lines; five most sensitive cell lines): > 70% | RAD51 protein levels (RAD51 in HCT116 cells): downregulating RAD51 | RAD51 mRNA levels [3]: downregulating RAD51 | RAD51 mRNA change [4]: no decrease | combination effect with doxorubicin [5]: synergistic effects | RAD51 foci in the nuclei [6]: complete loss | RAD51 levels in vivo [7]: downregulating RAD51 | combination effect with doxorubicin [8]: synergistic effects | apoptosis (HH lymphoma line): least % apoptosis | combination effect with doxorubicin (HH cell line): less than additive | effect on RAD51 protein levels [9]: least effect
